# Measured values published in paper PMC2009863, “Pharmacokinetic considerations in testing hypoxic cell radiosensitizers in mouse tumours” (British Journal of Cancer, 1979).
# Several values for one entry are separate records, joined by “and”; a condition that tells them apart may be missing. Equal entries are not always repeated. Where two headings read alike, the source gives them in different places.
# Tests used:
# [1] = Acute toxicity LD50/2d of MIS and Ro-05-9963; details: mouse, in vivo
# Text: (§1) Several groups are now pursuing such a goal (Adams, 1977; Brown et al., 1978; Wardman, 1977). […] Specifically the two ques- tions were: (a) How much does the plasma half-life affect the peak plasma level? (b) How much does the plasma half-life affect the tumour/plasma ratio of drug concentrations? MATERIALS AND METHODS A description of the procedures for implanta- tion of tumours, and irradiation and assay of the viability of the tumour cells has been published previously (Brown, 1975). Brieflv, the EMT6/St/lu tumour was transplanted into 3-month-old, syngeneic BALB/c female mice, weighing 20-25 g, and irradiated at a diameter of 6-7 mm. Immediately after irradiation the tumours were removed and minced. […] Plasma (or whole blood) and tumour levels of 2-nitroimidazoles were determined in different ways in the two laboratories rep- resented. In the first method, represented in Tables I and II and Fig. 1, tumour and plasma levels were determined on killing of individual mice, and were measured spectrophotomet- rically using UV absorption at 318 nm. […] Tumour levels were determined by preparing a 20% (w/v) homogenate of tumour in distilled water, and adding a 0 4 ml aliquot of homogenate to 2-6 ml absolute ethanol as described above. […]
# [2] = Text: as §1, with “minced. The only modification was that the single-cell suspensions were prepared by a 30 min disaggregation using an enzyme "'cock- tail" of 0-05% pronase, 0.02% DNAase and 21 0 02% collagenase (Brown et al., in prepara- tion). Cell viability was assayed by plating appropriate dilutions of the tumour cells into Waymouth's medium containing 15% foetal calf serum in polystyrene Petri dishes, and counting colonies 13 days later. […] Bilateral kidney ligation was performed on anaesthetized mice by exteriorizing the kidneys through a 1 cm incision in the skin and abdominal wall and tying a ligature around the renal artery and vein at the renal pelvis.” for “minced.”
# [3] = cited from earlier work
# [4] = cited from earlier work; for tumour concentration as % of corresponding plasma concentration: clinical studies, HPLC, after MIS administration, ref Wiltshire et al.
# [5] = Whole blood MIS and Ro-05-9963 by HPLC after MIS in control, sham-operated and kidney-ligated mice; details: for half-life: mouse, in vivo, 5 mmol/kg, plasma half-life
# Text: (§2) Several groups are now pursuing such a goal (Adams, 1977; Brown et al., 1978; Wardman, 1977). […] Specifically the two ques- tions were: (a) How much does the plasma half-life affect the peak plasma level? (b) How much does the plasma half-life affect the tumour/plasma ratio of drug concentrations? MATERIALS AND METHODS A description of the procedures for implanta- tion of tumours, and irradiation and assay of the viability of the tumour cells has been published previously (Brown, 1975). Brieflv, the EMT6/St/lu tumour was transplanted into 3-month-old, syngeneic BALB/c female mice, weighing 20-25 g, and irradiated at a diameter of 6-7 mm. Immediately after irradiation the tumours were removed and minced. The only modification was that the single-cell suspensions were prepared by a 30 min disaggregation using an enzyme "'cock- tail" of 0-05% pronase, 0.02% DNAase and 21 0 02% collagenase (Brown et al., in prepara- tion). Cell viability was assayed by plating appropriate dilutions of the tumour cells into Waymouth's medium containing 15% foetal calf serum in polystyrene Petri dishes, and counting colonies 13 days later. […] Bilateral kidney ligation was performed on anaesthetized mice by exteriorizing the kidneys through a 1 cm incision in the skin and abdominal wall and tying a ligature around the renal artery and vein at the renal pelvis. The abdominal incision, which was adjoining and parallel to the line of attach- ment of the abdominal wall with the dorsal muscles, was then closed tightly with 4 or 5 stitches, and the skin incision closed with metal clips. The sham operation was identical in all respects except for ligation of the renal artery and vein. […] Plasma (or whole blood) and tumour levels of 2-nitroimidazoles were determined in different ways in the two laboratories rep- resented. In the first method, represented in Tables I and II and Fig. 1, tumour and plasma levels were determined on killing of individual mice, and were measured spectrophotomet- rically using UV absorption at 318 nm. This measures the total concentration of all 2-nitroimidazoles in the sample. The pro- cedure used was a modification of that described by Chapman et al. (1974). To measure plasma levels, 0 4 ml of plasma (collected from heparinized whole blood by cardiac puncture at the time of killing) was added to 2-6 nil absolute ethanol. The mixture was vortexed for 1 min, allowed to stand for 10 min and then centrifuged for 5 min at high speed (1000 g). Tumour levels were determined by preparing a 20% (w/v) homogenate of tumour in distilled water, and adding a 0 4 ml aliquot of homogenate to 2-6 ml absolute ethanol as described above. […] At appropriate times after MIS administration, serial blood samples were taken from the tail of the same mouse. Duplicate 5 /A samples were collected in Microcap pipettes (Drummond Scientific Company), mixed with 45 µl water and stored at -20?C. Finally (usually at 10-12-5 h) the mice were bled by cardiac puncture and the undiluted heparinized whole blood was stored at -20?C.
# [6] = set-up: method as in Adams et al., 1976; Brown et al., 1978; details: ref Adams et al., 1976; Brown et al., 1978; cited from earlier work
# [7] = Plasma and tumour levels of total 2-nitroimidazoles, UV spectrophotometric assay at 318 nm, EMT6 tumour-bearing mice, normal or bilateral kidney ligation; details: for Plasma concn. / Tumour concn.: Table I, 5 mmol/kg i.p.; for Plasma concn. / Tumour concn. / Plasma concentration / Tumour concentration: individual mice; for Plasma concentration, Mean / Tumour concentration, Mean / Plasma concentration / Tumour concentration: Table II, 5 mmol/kg
# Text: as §2
# V-79 cells = details: cited from earlier work
# [8] = BKL Yes, 38 min after injection
smiles,measurement,setting,value
"COCC(O)Cn1ccnc1[N+](=O)[O-] (stereo not drawn) [MIS, 1-(2-nitroimidazol-1-yl)-3-methoxypropan-2-ol]",LD50 at 2 d,[1],1830 mg/kg
same,rectal temperature below uninjected mice,"[2]; 9 h after MIS injection, controls",≤ 3 °C
same,rectal temperature below the uninjected level,"[2]; 9 h after MIS injection, kidney-ligated mice",7 °C
same,rectal temperature drop,"[2]; first 5 h after MIS injection, all 3 groups",5.0 °C
same,uptake of (2-14C) MIS as % of plasma concentration,"[3]; MT mouse tumour and some normal mouse tissues, particularly at less than 6 h, ref Flockhart et al. (1978c)",less than 100%
same,tumour concentration as % of that in blood,"[3]; different mouse tumours, ref McNally et al. (1978)",18-72%
same,tumour concentration as % of corresponding plasma concentration,"[4]; 1978, Workman et al., 1978b",50-70%
same,tumour concentration as % of plasma levels,"[4]; human tumours, ref Gray et al., 1976, Dische et al., 1977, Urtasun et al.",42-107%
same,half-life in man,"[4]; plasma, ref Foster et al., 1975, Dische et al., 1977, Wiltshire et al., 1978, Workman et al., 1978b",~12 h
same,half-life,"[5]; BALB/c, bilateral kidney ligation before injection",10 to 11 h
same,half-life,"[5]; BALB/c, normal mice",~2 h
same,half-life,"[5]; ip, bilateral kidney ligation before injection",10 h
same,glucuronide conjugates of MIS and Ro-05-9963 in plasma,[5]; normal and sham-operated mice after MIS,not found
"O=[N+]([O-])c1nccn1CC(O)CO (stereo not drawn) [Ro-05-9963, 1-(2-nitroimidazol-1-yl)-2,3-pro-pandiol]",lipophilicity compared with MIS,[6],considerably less lipophilic
same,tumour levels lower than plasma concentration,[7]; EMT6 tumour,30-40%
same,plasma half-life,"[7]; Fig. 1, normal BALB/c mice, equal peak plasma levels: MIS 5 mmol/kg, Ro-05-9963 10 mmol/kg i.p.",0.55 h
same,Plasma concn.,[7]; 30 min after inj.,2 to 8 mM and 2 to 4 mM and 2 to 6 mM
same,Tumour concn.,[7]; 30 min after inj.,0-77 mM and 1.5 mM and 1-1 mM
same,Plasma concn.,[7]; 37.5 min after inj.,2-4 mM (2×) and 2-5 mM and 0-88 mM
same,Tumour concn.,[7]; 37.5 min after inj.,2-4 mM and 1-7 mM (2×)
same,Plasma concn.,[7]; 45 min after inj.,1 to 5 mM and 0 to 38 mM and 1 to 2 mM
same,Tumour concn.,[7]; 45 min after inj.,0 to 74 mM and 0 to 76 mM and 0 to 25 mM
same,"Plasma concentration, Mean","[7]; BKL No, 38 min after injection",1000 to 4000 µM
same,"Tumour concentration, Mean","[7]; BKL No, 38 min after injection",1-1 mM
same,"Plasma concentration, Mean","[7]; BKL Yes, 6 h after injection",4000 to 8000 µM
same,"Tumour concentration, Mean","[7]; BKL Yes, 6 h after injection",2 to 8 mM
same,Plasma concentration,"[7]; BKL No, 38 min after injection",0 to 42 mM and 0 to 51 mM and 1 to 93 mM and 2 to 16 mM and 2 to 36 mM and 1 to 27 mM
same,Tumour concentration,"[7]; BKL No, 38 min after injection",0 to 24 mM and 0 to 25 mM and 2 to 35 mM and 1 to 30 mM and 1 to 58 mM and 0 to 90 mM
same,Plasma concentration,[7]; [8],4.7 mM (2×) and 5.4 mM and 4-9 mM
same,Tumour concentration,[7]; [8],4.3 mM and 2 to 4 mM and 2 to 8 mM and 1 to 6 mM
same,Plasma concentration,"[7]; BKL Yes, 6 h after injection",5.9 mM and 4 to 6 mM and 4 to 7 mM
same,Tumour concentration,"[7]; BKL Yes, 6 h after injection",2 to 3 mM and 2 to 9 mM and 3 to 7 mM
same,"plasma and tumour concentrations less than those of MIS, factor","[7]; equimolar injected doses, normal mice",≥ 2
same,tumour concentration as % of corresponding plasma concentration,"[4]; 1978, Workman et al., 1978b",50-70%
same,radiosensitizing effectiveness compared with MIS,"V-79 cells; V-79 cells in vitro, ref Adams et al. (1976)",slightly less effective
same,radiosensitizing effectiveness compared with MIS,"V-79 cells; in vitro, ref Flockhart et al. (1968b)",slightly more so
same,proportion of Ro-05-9963 to total non-conjugated 2-nitroimidazoles,"[5]; 38 min after MIS injection, control and nephrectomized mice",5%
same,proportion of Ro-05-9963 to total non-conjugated 2-nitroimidazoles,"[5]; 6.5 h after MIS injection, nephrectomized mice",22%
same,proportion of Ro-05-9963 to total non-conjugated 2-nitroimidazoles,"[5]; 6.5 h after MIS injection, normal mice",24%
